Data reported in patent US20100227884A1 (priority 2007, published 2010).

Experiments:
Assay type in all cases: in vivo
Botrytis cinerea [1] = assay: Test Example 2: curative effect on Botrytis disease of cucumber; conditions: cucumber (Sagami Hanjiro), wettable powder, 200 ppm foliar spray after inoculation, 12° C. for 2 days under high humidity
Description: (§1) The area of lesions on the test plants at testing was visually observed, and the control effect was evaluated by comparing the area of lesions on test plants treated with the invented compound with the area of lesions on untreated plants.
Test for showing curative effect on Botrytis disease of cucumber (Botrytis cinerea):
Sand soil was packed in a plastic pot, and seeds of cucumber (variety: Sagami Hanjiro) were sowed therein and grown for 12 days in a greenhouse. A PDA medium containing spores of Botrytis cinerea was placed on the surface of leaves of the cucumber to inoculate the surface of leaves of the cucumber. Then, the wettable powder of each of the invented compounds (1) and (2) and the comparative compound (A) was diluted with water to a concentration of 200 ppm and was sprayed onto the foliage of the cucumber so that a sufficient amount of the compound would be applied to the surface of leaves of the cucumber. After spraying, the plant was air-dried and left at 12° C. for 2 days under high humidity, and then the area of lesions was examined.
As a result, the lesion area on the plant treated with the invented compounds (1) and (2) was respectively less than 11% and less than 15% of the lesion area on the plant of untreated plant. The lesion area on the plant treated with the comparative compound (A) was 98% of the untreated plant.

Botrytis cinerea [2] = assay: Test Example 1: preventive effect on Botrytis disease of cucumber; conditions: cucumber (Sagami Hanjiro), flowable formulation, 200 ppm foliar spray before inoculation, 12° C. for 5 days under high humidity
Description: as §1
Test for showing preventive effect on Botrytis disease of cucumber (Botrytis cinerea):
Sand soil was packed in a plastic pot, and seeds of cucumber (variety: Sagami Hanjiro) were sowed therein and grown for 12 days in a greenhouse. Each of the invented compounds (1)-(5) and the comparative compound (A) was formulated into flowable formulation in accordance with Formulation Example 6, and it was diluted with water to a given concentration (200 ppm) and was sprayed onto the foliage of the cucumber so that a sufficient amount of the compound would be applied to the surface of leaves of the cucumber. After spraying, the plant was air-dried and PDA medium containing spores of Botrytis cinerea was placed on the surface of leaves of the cucumber. After the inoculation, the plant was left at 12° C. for 5 days under high humidity, and then the area of lesions was examined. As a result, the lesion area on the plant treated with the invented compounds (1)-(5) was less than 10% of the lesion area on the untreated plant. The lesion area on the plant treated with the comparative compound (A) was 98% of the untreated plant.

Magnaporthe grisea = conditions: rice (Nihonbare), flowable formulation, 500 ppm foliar spray before inoculation, 5 days after inoculation

With COc1cccc(CNC(=O)c2ccc3ncccc3c2)c1F [invented compound (1), N-(2-fluoro-3-methoxyphenyl)methyl-quinoline-6-carboxamide] the “lesion area on the treated plant as % of the lesion area on the untreated plant” value (“lesion area on the treated plant as %” below) (Botrytis cinerea [1]) was “less than 11%”.

CCOc1cccc(CNC(=O)c2ccc3ncccc3c2)c1F [invented compound (2), N-(3-ethoxy-2-fluorophenyl)methyl-quinoline-6-carboxamide] was tested, and the “lesion area on the treated plant as %” value (Botrytis cinerea [1]) was “less than 15%”.

In the case of CC(C)CCOc1cccc(CNC(=O)c2ccc3ncccc3c2)c1 [comparative compound (A), N-(3-(3-methylbutoxy)phenyl)methyl-quinoline-6-carboxamide], the “lesion area on the treated plant as %” value (Botrytis cinerea [2]) was 98%, the “lesion area on the treated plant as %” value (Botrytis cinerea [1]) was 98% and the “lesion area on the treated plant as %” value (Magnaporthe grisea) was 98%.
